Numbers after ± are expanded uncertainties.
Assays:
[1] = refractive index (Na D-line) (dimensionless); xn = mol fraction of the nth substance listed; conditions: 100.8 kPa, Liquid, Standard Abbe refractometry
[2] = xn = mol fraction of the nth substance listed; conditions: 288.15 K, 100.8 kPa, Liquid; for viscosity: Capillary tube (Ostwald / Ubbelohde) method

CC(C)CC(C)(C)C [2,2,4-trimethylpentane] + CCO
refractive index, [1]
Conditions | 288.15 K | 298.15 K | 308.15 K
x2 = 0 | 1.39404 ± 0.00031 | 1.389 ± 0.00031 | 1.38395 ± 0.00031
x2 = 0.0502 | 1.39319 ± 0.00031 | 1.3881 ± 0.00031 | 1.38297 ± 0.00031
x2 = 0.1 | 1.39241 ± 0.00031 | 1.3873 ± 0.00031 | 1.38217 ± 0.00031
x2 = 0.15 | 1.39162 ± 0.00031 | 1.38651 ± 0.00031 | 1.38138 ± 0.00031
x2 = 0.2 | 1.39081 ± 0.00031 | 1.38569 ± 0.00031 | 1.38056 ± 0.00031
x2 = 0.25 | 1.38996 ± 0.00031 | 1.38485 ± 0.00031 | 1.37972 ± 0.00031
x2 = 0.3 | 1.38907 ± 0.00031 | 1.38397 ± 0.00031 | 1.37885 ± 0.00031
x2 = 0.35 | 1.38811 ± 0.00031 | 1.38304 ± 0.00031 | 1.37794 ± 0.00031
x2 = 0.4 | 1.38709 ± 0.00031 | 1.38204 ± 0.00031 | 1.37696 ± 0.00031
x2 = 0.45 | 1.38597 ± 0.00031 | 1.38099 ± 0.00031 | 1.37593 ± 0.00031
x2 = 0.5 | 1.38479 ± 0.00031 | 1.37984 ± 0.00031 | 1.3748 ± 0.00031
x2 = 0.55 | 1.3835 ± 0.00031 | 1.37858 ± 0.00031 | 1.37358 ± 0.00031
x2 = 0.6 | 1.38209 ± 0.00031 | 1.37722 ± 0.00031 | 1.37227 ± 0.00031
x2 = 0.65 | 1.38055 ± 0.00031 | 1.37573 ± 0.00031 | 1.37083 ± 0.00031
x2 = 0.7 | 1.37884 ± 0.00031 | 1.37408 ± 0.00031 | 1.36922 ± 0.00031
x2 = 0.75 | 1.37694 ± 0.00031 | 1.37225 ± 0.00031 | 1.36745 ± 0.00031
x2 = 0.8 | 1.37484 ± 0.00031 | 1.3702 ± 0.00031 | 1.3655 ± 0.00031
x2 = 0.85 | 1.37249 ± 0.00031 | 1.36792 ± 0.00031 | 1.3633 ± 0.00031
x2 = 0.9 | 1.36984 ± 0.00031 | 1.36536 ± 0.00031 | 1.36085 ± 0.00031
x2 = 0.95 | 1.36684 ± 0.00031 | 1.36248 ± 0.00031 | 1.35812 ± 0.00031

[2]
Conditions | mass density [kg/m3] | viscosity [mPa·s]
x2 = 0 | 695.95 ± 0.31 | 0.537 ± 0.005
x2 = 0.0502 | 697.2 ± 0.31 | 0.532 ± 0.005
x2 = 0.1 | 698.76 ± 0.31 | 0.535 ± 0.005
x2 = 0.15 | 700.55 ± 0.3 | 0.542 ± 0.005
x2 = 0.2 | 702.53 ± 0.3 | 0.551 ± 0.005
x2 = 0.25 | 704.71 ± 0.3 | 0.564 ± 0.005
x2 = 0.3 | 707.1 ± 0.3 | 0.58 ± 0.005
x2 = 0.35 | 709.71 ± 0.3 | 0.601 ± 0.005
x2 = 0.4 | 712.6 ± 0.29 | 0.625 ± 0.005
x2 = 0.45 | 715.8 ± 0.29 | 0.652 ± 0.006
x2 = 0.5 | – | 0.682 ± 0.006
x2 = 0.55 | – | 0.718 ± 0.006
x2 = 0.6 | – | 0.755 ± 0.006
x2 = 0.65 | – | 0.797 ± 0.007
x2 = 0.7 | – | 0.843 ± 0.007
x2 = 0.75 | – | 0.894 ± 0.007
x2 = 0.8 | – | 0.952 ± 0.008
x2 = 0.85 | – | 1.018 ± 0.008
x2 = 0.9 | – | 1.095 ± 0.009
x2 = 0.95 | – | 1.19 ± 0.01
